According to patent US9562065B2, “Sucrose octasulfates of magnesium, preparation method thereof and pharmaceutical cosmetic uses of same” (PIERRE FABRE DERMO-COSMETIQUE, priority 2011, dated 2017):
Marks after values point to notes of the source that are not given here.

Key:
Type in all cases: cell-based
DEFB103A = assay: mRNA expression in normal human keratinocytes (Quantigene), DEFB103A; set-up: dose or concentration left out as unconfirmed; conditions: CaCl2, positive control, 72 hours, NHK, in relation to the negative control
Experimental: (§1) The effect of sucrose octasulfate of magnesium and sucrose octasulfate of potassium and sodium on regulation of molecular targets involved in keratinocyte differentiation processes was evaluated. To that end, normal human keratinocytes (NHK) were brought together with the various products to be tested and the expression of various RNA coding proteins involved in the establishment of protein structures of the cornified envelope, but also in the synthesis of lipids or the expression of antimicrobial peptides, was measured.
(§2) The keratinocyte cell line used is the primary human keratinocyte cell line or NHKs prepared from strips of skin from cosmetic surgery waste (breast reduction). […]
(§3) The products to be tested are incubated with keratinocytes for 72 hours. The cells are then recovered and an analysis of the expression of target genes involved in epidermal differentiation is carried out using Quantigene technology, used to quantify the expression of mRNA of interest.
(§4) The values obtained by Quantigene are normalized in relation to the geometric mean of 2 reference genes, POL2RA and HPRT. Relative quantity is calculated in relation to the control. Regulation of the expression of the gene of interest is taken into account from a RQ (relative quantity)≧1.9 (induction) or RQ[…] (inhibition). […]

UGCG = assay: mRNA expression in normal human keratinocytes (Quantigene), UGCG; set-up: dose or concentration left out as unconfirmed; conditions: CaCl2, positive control, 72 hours, NHK, in relation to the negative control
Experimental: as §1, §2, §3, §4

RNASE7 = assay: mRNA expression in normal human keratinocytes (Quantigene), RNASE7; set-up: dose or concentration left out as unconfirmed; conditions: CaCl2, positive control, 72 hours, NHK, in relation to the negative control
Experimental: as §1, §2, §3, §4

CDSN = assay: mRNA expression in normal human keratinocytes (Quantigene), CDSN; set-up: dose or concentration left out as unconfirmed; conditions: positive control, 72 hours, NHK, in relation to the negative control
Experimental: as §1, §2, §3, §4

[1] = test system: HaCaT human keratinocytes cell line; assay: Oris Cell Migration Assay, keratinocyte migration; conditions: for AVG IF (Intensity of Fluorescence, proportional to the quantity of cells having migrated) / % activity/control: 24 hours; for AVG IF (Intensity of Fluorescence, proportional to the quantity of cells having migrated): DMEM 0% FCS; for % activity/control: in relation to the 0% FCS control
Experimental: In order to evaluate the impact of sucrose octasulfate of magnesium on the cell migration of HaCaT keratinocyte cell lines, studies were carried out using the Oris Cell Migration Assay Kit (Platypus Technologies). This study was conducted in parallel with sucrose octasulfate of potassium and sucrose octasulfate of sodium for comparison.
The keratinocyte cell line used is the HaCaT human keratinocytes cell line, spontaneously immortalized. This line is frequently cited as a reference model in the literature.
The protocol used for the cell migration study is based on the use of a 96-well kit, Oris Cell Migration Assay (Platypus Technologies—TEBU), enabling the miniaturization and quantification of this cell process.
The principle of this test consists in studying cell migration toward the center of the well of the 96-well plate. It consists in placing a stopper in the wells, in order to create a detection zone 2 mm in diameter. Then the stoppers are removed once the cells are well adhered to the surrounding surface, thus allowing the cells to migrate toward the detection zone. Plates without stoppers and with active agents are incubated at 37° C. for 24 hours in DMEM 0% FCS. The quantity of cells located in the zone previously occupied by the stopper is then analyzed in order to evaluate cell migration. A mask is used to visualize and count only the cells located in this zone. For each condition, an average of 4 to 8 wells is prepared.
The products tested in this study are SOS-Mg obtained in example 1 at a concentration of 10 μM, SOS-K at 10 μM (sucrose octasulfate of potassium), SOS-Na at 10 μM (sucrose octasulfate of sodium) and EGF as positive control. A negative control is prepared in which no compound is added to the culture medium (control 0% FCS).
The results are quantified by means of the following formula:
[formula] • in IF (Intensity of Fluorescence, proportional to the quantity of cells having migrated). • in percentage of activity in relation to the 0% FCS control.

IVL = assay: mRNA expression in normal human keratinocytes (real-time PCR), IVL; conditions: 30 μM, 72 hours, NHK
Experimental: (§5) The keratinocyte cell line used is the primary human keratinocyte cell line or NHKs prepared from strips of skin from cosmetic surgery waste (breast reduction). The cells are grown in low-magnesium (0.1 mM) KSFM (Invitrogen) supplemented with 25 μg/ml bovine pituitary extract (BPE) and 1.5 ng/ml […] (EGF).
as §3
(§6) A second study was carried out under the same conditions but by measuring the expression of a larger number of genes (64 targets involved in cell differentiation) by real-time PCR.
(§7) These inductions show the role of SOS-Mg in the induction of keratinocyte differentiation and thus of cicatrization (IVL, SPRR1A, SPRR1B and LOR), in moisturization (Padi1) as well as its antimicrobial properties (hBD2).

SPRR1A = assay: mRNA expression in normal human keratinocytes (real-time PCR), SPRR1A; conditions: 30 μM, 72 hours, NHK
Experimental: as §5, §3, §6, §7

LOR = assay: mRNA expression in normal human keratinocytes (real-time PCR), loricrin; conditions: 30 μM, 72 hours, NHK, FIG. 1
Experimental: FIG. 1 represents the relative quantity of loricrin mRNA produced by keratinocytes treated for 72 hours with 30 μM sucrose octasulfate of magnesium (SOS-Mg), 30 μM sucrose octasulfate of sodium (SOS-Na) or 30 μM sucrose octasulfate of magnesium (SOS-Mg) in relation to the negative control.
as §5, §3, §6
(§8) These inductions show the role of SOS-Mg in the induction of keratinocyte differentiation and thus of cicatrization (IVL, SPRR1A, SPRR1B and LOR), in moisturization (Padi1) as well as its antimicrobial properties (hBD2). […]

FLG = assay: mRNA expression in normal human keratinocytes (real-time PCR), FLG; conditions: 30 μM, 72 hours, NHK
Experimental: as §5, §3, §6, §7

Padi1 = assay: mRNA expression in normal human keratinocytes (real-time PCR), Padi1; conditions: 30 μM, 72 hours, NHK, FIG. 2
Experimental: FIG. 2 represents the relative quantity of Padi1 mRNA produced by keratinocytes treated for 72 hours with 30 μM sucrose octasulfate of magnesium (SOS-Mg), 30 μM sucrose octasulfate of sodium (SOS-Na) or 30 μM sucrose octasulfate of magnesium (SOS-Mg) in relation to the negative control.
as §5, §3, §6, §8

SPRR1B = assay: mRNA expression in normal human keratinocytes (real-time PCR), SPRR1B; conditions: 30 μM, 72 hours, NHK
Experimental: as §5, §3, §6, §7

hBD2 (DEFB4) = assay: mRNA expression in normal human keratinocytes (real-time PCR), hBD2; conditions: 30 μM, 72 hours, NHK, FIG. 3
Experimental: FIG. 3 represents the relative quantity of hBD2 mRNA produced by keratinocytes treated for 72 hours with 30 μM sucrose octasulfate of magnesium (SOS-Mg), 30 μM sucrose octasulfate of sodium (SOS-Na) or 30 μM sucrose octasulfate of magnesium (SOS-Mg) in relation to the negative control.
as §5, §3, §6, §8

Molecule: [Ca+2].[Cl-].[Cl-] [CaCl2]
- Relative quantities (RQ) of mRNA expression, DEFB103A (DEFB103A): 18.7
- Relative quantities (RQ) of mRNA expression, DEFB103A (DEFB103A; listed as Calcium): induced
- Relative quantities (RQ) of mRNA expression, UGCG (UGCG): 3.1
- Relative quantities (RQ) of mRNA expression, UGCG (UGCG; listed as Calcium): induced
- Relative quantities (RQ) of mRNA expression, RNASE7 (RNASE7): 4.5
- Relative quantities (RQ) of mRNA expression, RNASE7 (RNASE7; listed as Calcium): induced
- Relative quantities (RQ) of mRNA expression, CDSN (CDSN): 1.3

Molecule: O=S(=O)([O-])OC[C@H]1O[C@@](COS(=O)(=O)[O-])(O[C@H]2O[C@H](COS(=O)(=O)[O-])[C@@H](OS(=O)(=O)[O-])[C@H](OS(=O)(=O)[O-])[C@H]2OS(=O)(=O)[O-])[C@@H](OS(=O)(=O)[O-])[C@@H]1OS(=O)(=O)[O-].[K+].[K+].[K+].[K+].[K+].[K+].[K+].[K+] [SOS-K, sucrose octasulfate of potassium]
- AVG IF (Intensity of Fluorescence, proportional to the quantity of cells having migrated) ([1]; 10 μM, HaCaT): 5001 ± 835
- % activity/control ([1]; 10 μM): 99%
- keratinocyte migration (result in words) ([1]; 10 μM, HaCaT): do not induce keratinocyte migration

Molecule: O=S(=O)([O-])OC[C@H]1O[C@@](COS(=O)(=O)[O-])(O[C@H]2O[C@H](COS(=O)(=O)[O-])[C@@H](OS(=O)(=O)[O-])[C@H](OS(=O)(=O)[O-])[C@H]2OS(=O)(=O)[O-])[C@@H](OS(=O)(=O)[O-])[C@@H]1OS(=O)(=O)[O-].[Na+].[Na+].[Na+].[Na+].[Na+].[Na+].[Na+].[Na+] [SOS-Na, sucrose octasulfate of sodium]
- AVG IF (Intensity of Fluorescence, proportional to the quantity of cells having migrated) ([1]; 10 μM, HaCaT): 4988 ± 965
- % activity/control ([1]; 10 μM): 99%
- keratinocyte migration (result in words) ([1]; 10 μM, HaCaT): do not induce keratinocyte migration

Molecule: EGF: epithelial growth factor (EGF), positive control of the migration test
- AVG IF (Intensity of Fluorescence, proportional to the quantity of cells having migrated) ([1]; EGF 33 ng, positive control, HaCaT): 16138 ± 1548
- % activity/control ([1]; EGF 33 ng, positive control): 320*** %
- keratinocyte migration (result in words) ([1]; EGF at 33 ng/ml, positive control, HaCaT): induced keratinocyte migration (and proliferation) in a very large and significant manner

Molecule: sucrose octasulfate of magnesium [SOS-Mg]
- expression of IVL mRNA (IVL): induced
- expression of SPRR1A mRNA (SPRR1A): induced
- expression of LOR (loricrin) mRNA (LOR): induced to a greater extent
- expression of FLG mRNA (FLG): induced
- expression of Padi1 mRNA (Padi1): induced to a greater extent
- AVG IF (Intensity of Fluorescence, proportional to the quantity of cells having migrated) ([1]; 10 μM, HaCaT): 7084 ± 662
- % activity/control ([1]; 10 μM): 140* %
- keratinocyte migration (result in words) ([1]; 10 μM, HaCaT): induced keratinocyte migration in a statistically significant manner
- migration relative to that induced by SOS-Na and SOS-K ([1]; 10 μM, HaCaT): 1.4 times
- expression of SPRR1B mRNA (SPRR1B): induced
- expression of hBD2 (DEFB4) mRNA (hBD2 (DEFB4)): induced to a greater extent
